Where two headings read alike, the source gives them in different places.

Data set [1] concerns L1210 leukemia. The conditions noted are these: 10-100 mg/kg intraperitoneally; cited from earlier work.
Data set [2] relates to L1210 cells. The conditions noted are these: cited from earlier work.
The subject of data set [3] is topoisomerase II. The conditions noted are these: cited from earlier work.
The conditions of data set [4]: cited from earlier work.
Data set [5] relates to topoisomerase I. The conditions noted are these: cited from earlier work.
For data set [6] the following is noted: pH levels below 7.0; cited from earlier work.
For data set [7] the following is noted: Phase I, early 1970's; cited from earlier work.
Data set [8] concerns Topoisomerase I purified from human colon carcinoma cells or calf thymus. The conditions noted are these: cited from earlier work.
Data set [9] deals with topoisomerase I. The conditions noted are these: P388 cells; cited from earlier work.
For data set [10] the following is noted: after CPT-11 versus HECPT administration; cited from earlier work.
Data set [11] deals with MOLT3 cells. The conditions noted are these: cited from earlier work.
A short description of data set [12]: Fractional amounts of lactone species of CPT-11 and HECPT (Rothenburg et al.). The class given is in vivo, human. The conditions noted are these: Table 4. An excerpt: Fractional Amounts of Lactone Species of CPT-11 and HECPT as
Function of Increasing Single Dose LV. From Rothenburg et al.

For data set [13] the following is noted: cited from earlier work. This is another data set of the same source.
The test system of data set [14] is DNA single-strand breaks. The conditions noted are these: cells exposed to HECPT; cited from earlier work.
The subject of data set [15] is P388 tumor. The conditions noted are these: intermittent bolus days 1, 5, 9, i.p.; cited from earlier work.
For data set [16] the following is noted: cited from earlier work. This is another data set of the same source.
Data set [17] can be described thus: Pharmacokinetics of CPT-11 and HECPT, 5-day continuous infusion of CPT-11 (Ohe et al.). The class given is in vivo, human. To be noted: e.g., above 30 mg/m^2/d. An excerpt:
Initially, patients may be treated in a dose escalation protocol to determine the maximal tolerated dose of the ECPT formulation. […] For the purpose of this invention, "AUC" is defined as "area under the curve" and "CpMax" is defined as "the maximum plasma concentrate at the end of I.V.

On to `CC[C@@]1(O)C(=O)OCc2c1cc1n(c2=O)Cc2cc3ccccc3nc2-1` [camptothecin], for which, in data set [1], the “T/C (treated/control) ratios relative to ECPT and HECPT” value was “superior”; the “results relative to CPT-11 under the same conditions” value is listed as “inferior”. Further, in [2], the protein-free breaks entry is “increase in unexplained protein-free breaks”. Also, the “effect on topoisomerase II” value in data set [3] is reported as “no effect”. Moreover, the solubility in water entry in data set [4] is on record as “poorly soluble in water”. Besides, the “reversibility of cleavable complex stabilization” value in data set [5] is “readily reversible”. For the same compound, in data set [6], the form predominating result is listed as “closed form”. Also, in [7], the “antitumor activity in Phase I trials” value was “antitumor activity”; the “toxicity in Phase I trials” value was “unpredictable myelosuppression and hemorrhagic cystitis”. Also, the “inhibition of purified topoisomerase I” value in data set [8] was “inhibited”.
By AUC is commonly meant the area under the concentration-time curve, a measure of exposure. Take `CCc1c2c(nc3ccc(O)cc13)-c1cc3c(c(=O)n1C2)COC(=O)[C@]3(O)CC` [HECPT, 10-hydroxy 7-ethyl camptothecin]: the “inhibitory activity against topoisomerase I relative to CPT-11” value in data set [9] is reported as 3600 fold. For the same compound, the “plasma concentration of HECPT in mice” value in data set [10] is “maintained longer after CPT-11 administration than after treatment with HECPT”. Moreover, in [1], the “results relative to CPT-11 under the same conditions” value is “inferior”. Also, the “potency in generating single-strand DNA breaks relative to CPT-11” value in data set [11] is reported as “approximately 1000 fold”. In addition, the “overall fractional concentration of the lactone species through a range of doses” value in data set [12] is reported as “fairly constant”. Further, the area under the curve (AUC) is 195.5 ng·h/mL in data set [13] (CPT-11 50 mg/m^2/wkx4); 214.8 ng·h/mL in data set [13] (CPT-11 100 mg/m^2/wkx4); 123.2 ng·h/mL in data set [13] (CPT-11 150 mg/m^2/wk X4); 232.8 ng·h/mL in data set [13] (CPT-11 180 mg/m^2/wk X4); 62.2 ng·h/mL in [13] (first Rothenberg line, no dose given); 1080 ng·h/mL in data set [16] (CPT-11 25 mg/m^2/dx5). The AUC is 960 ng·h/mL in data set [16] (CPT-11 30 mg/m^2/dx5), 910 ng·h/mL in data set [16] (CPT-11 35 mg/m^2/dx5) and 860 ng·h/mL in data set [16] (CPT-11 40 mg/m^2/dx5). Besides, the CpMax in data set [13] (CPT-11 50 mg/m^2/wkx4) is 0.0393 µg/mL; in data set [13] (CPT-11 100 mg/m^2/wkx4), 0.0316 µg/mL; in data set [13] (CPT-11 150 mg/m^2/wk X4) it was 0.0367 µg/mL; in data set [13] (CPT-11 180 mg/m^2/wk X4), 0.0262 µg/mL; in [16] (CPT-11 25 mg/m^2/dx5), 0.0104 µg/mL; in [16] (CPT-11 35 mg/m^2/dx5), 0.0068 µg/mL. Moreover, in [16] (CPT-11 40 mg/m^2/dx5), the CpMax was 0.0080 µg/mL. In addition, the “reversibility of cleavable complex stabilization” value in data set [5] is given as “readily reversible”. Further, in data set [14], the “greatest quantitative biochemical effect” value was “DNA single-strand breaks that occur during the S-phase”. Further, the “anti-tumor activity compared to CPT-11 in vivo” value in [15] is “little anti-tumor activity”. For the same compound, the “toxicity of HECPT relative to CPT-11 (suggested)” value in [16] (Ohe et al.) is “more toxic moiety”. Also, the “correlation between HECPT pharmacokinetics and dose or CPT-11 pharmacokinetics and toxicity” value in data set [16] (human subjects) was “lack of correlation”. The “CpMax of HECPT with increases in dose of CPT-11” value in [17] is on record as “decrease”. For the same compound, the “inhibition of purified topoisomerase I” value in data set [8] was “inhibited”.
